Results taken from patent publication US7157449B2, “Medicament for the treatment of diseases caused by parasitic protozoa” (priority 2000, dated 2007).
“Also recorded” adds a separate entry of the source.

Tests used:
T. brucei [1] = test: NTP (CTP) pools in trypanosomes after treatment with CTP synthetase inhibitors; type: cell-based; details: for size of the CTP pool after addition of cytidine or cytosine: up to 15 mM cytidine or 1 mM cytosine, harvested one hour later; for effect on the CTP pool: 1 h incubation, 25 and 100 μM DON, 100 μM acivicin, 25 μM CPEC
Method: Samples without drug (control), with 25 and 100 μM DON (DON25 and DON100, respectively), with 100 μM acivicin (Aci100) and with 25 μM CPEC (CPEC25) are shown. The unit of the ordinata is the same as in FIG. 1. The control is an average of two experiments while the others are single measurements.
(§1) Procyclic insect forms of T. brucei brucei AnTat 1.1 were cultured in SDM-79 medium (Brun, R. and Schoenenberger, M. (1979) Acta Trop. 36, 289–292) supplemented with 10% heat-inactivated fetal bovine serum at 27° C. Culture-adapted bloodstream forms of the T. brucei brucei cell line TC221 (Hirumi, H., Hirumi, K., Doyle, J. J. and Cross, G. A. M. (1980) Parasitology 80, 371–382) were propagated in Hirumi's modified Iscove's medium-9 (Hirumi, H. and Hirumi, K. (1989) J. Parasitology 75, 985–989) supplemented with 5% fetal bovine serum at 37° C. in a humidified atmosphere containing 7% CO2. The cultured parasites were harvested in the late logarithmic growth phase.
1–3×10^8 trypanosomes were collected and subsequently disintegrated by 500 μl ice-cold 0,6 M trichloroacetic acid supplemented with 15 mM MgCl2. The trichloroacetic acid was removed by two extractions with 720 μl 1,1,2-trichlorotrifluoroethan (78%)/trioctylamine (22%) and the aqueous phase was saved. ⅕ of the sample was evaporated to dryness in a Speedvac (Savant), loaded onto a 4.6×125 mm Partisphere SAX-column and run by HPLC in 0,5 M ammonium phosphate pH 3,4 containing 2,5% acetonitrile at 1.5 ml/min. The procedure is further explained in previous work by the present inventors, see Hofer, A., Ekanem, J. T. and Thelander, L. (1998) J. Biol. Chem. 273, 34098–34104. A connection of the HPLC to a Flow Scintillation Analyzer (Radiomatic 150 TR, Packard) made it possible to check the radioactivity in the chromatographic peaks. For radioactivity measurements, the whole sample was usually loaded onto the column. The nucleotides were quantified by measuring the peak heights and comparing them to a standard curve.
(§2) 6-diazo-5-oxo-L-norleucine (DON), acivicin and azaserine were bought from Sigma. They were dissolved in water and stored as 5 mM solutions at −20° C. Cyclopentenyl cytosine was a kind gift from Grant McClarty at the Dept. of Medical Microbiology, University of Manitoba, 730 William Ave, Winnipeg, Manitoba R3E OW3, Canada. It was stored as a 50 mM solution in dimethyl sulfoxide (DMSO) at 4° C. The final concentration of DMSO in the growth media of the trypanosomes never became more than 0.5% and that had no effect on the NTP pools or the proliferation of the parasites.
The absolute dependence on de novo synthesis for CTP production might be exploited for chemotherapy purposes since the host can be rescued by cytidine. There are two major classes of compounds that inhibit CTP synthetase, nucleoside analogues and glutamine analogues. One nucleoside analogue, cyclopentenyl cytosine (CPEC), and two glutamine analogues, 6-diazo-5-oxo-L-norleucin (DON) and acivicin, were tested and it was observed how the CTP pool changed during the one-hour incubation period (FIG. 3). […] Next, the effect of the drugs on trypanosome growth was investigated. […] As expected. CPEC (250 μM) had no effect in this experiment either (data not shown).

T. brucei [2] = test: Effect of drugs on trypanosome proliferation; type: cell-based; details: for rescue of trypanosomes from the proliferation block asserted by DON: cytidine up to 5 mM or cytosine 1 mM; for effect on trypanosome proliferation: DON 1, 5 μM, acivicin 1, 5, 25 μM, CPEC 250 μM, azaserine data not shown
Method: In A), the trypanosomes were treated with no drug (squares), 1 μM DON (triangles) or 5 μM DON (diamonds). In (B), the trypanosomes were treated with no drug (filled squares), 1 μM acivicin (triangles), 5 μM acivicin (diamonds) or 25 μM acivicin (open squares). The number of trypanosomes was counted at various time-points after the drug exposure had started. It appears that DON and acivicin were both very active.
The trypanosomes were treated with DON for 1 h and then harvested and resuspended in drug-free medium. The number of trypanosomes was counted at various time-points after the release had started (triangles). A control experiment was performed where the trypanosomes were not exposed to DON but otherwise were treated exactly the same way as the drug-treated trypanosomes (squares). Each point is an average of two experiments with the standard deviation indicated by error bars.
as §1, §2
DON is not stable in the bloodstream and has a half-life of only a few hours in humans (Kovach, J. S., Eagan, R. T., Pawis, G., Rubin, J., Creagan, E. T. and Moertel. C. G. (1981) Cancer Treat. Rep. 65, 1031–1036; Rahman, A., Luc, V., Smith, F. P., Vrown, J., Schein, P. S. and Woolley, P. V. (1981); and Sullivan, M. P., Nelson, J. A., Feldman, S. and Nguyen, B. V. (1988) Cancer Chemother. Pharmac. 21, 78–84). Therefore, it was tested for how long the effect of a short pulse of DON lasts on trypanosome proliferation. In FIG. 5, the trypanosomes have been treated with 5 μM DON for 1 h. After the incubation, the trypanosomes were collected by centrifugation, the pellet was washed with media not containing DON and resuspended in the same media and the trypanosomes were put back into the incubator. The amount of trypanosomes was continuously recorded during the incubation. Control trypanosomes were treated the same way except that the one-hour incubation was without DON.

mouse BALB/c fibroblasts = test: Proliferation of BALB/c fibroblasts with DON with or without hypoxanthine; type: cell-based
Method: The fibroblasts were seeded at a density so low that they could not get confluent within three days. […] At this point the amount of cells was indirectly counted by a method described in the section “Material and methods” below.
Mouse Balb/c fibroblasts were cultivated as monolayers in Dulbecco's Modified Eagles Medium (Sigma) supplemented with L-glutamine (0.584 g/l) and 10% heat-inactivated horse serum at 37° C. in a humidified atmosphere containing 7% CO2. The amount of fibroblasts on each plate was determined by a method were the cell-containing plates were washed with PBS pH 7.5, the cells disintegrated by a 10 min. incubation with 0.2 M NaOH at 50° C. and then the OD260-310 was measured (Suttle, D. P. and Stark, G. R. (1979) J. Biol. Chem. 254, 4602–4607). The cells were collected before confluence.
The effect of DON on trypanosomes and mammalian cells was compared as follows. […] Thus, it needed to be investigated whether or not the anti-proliferation effect on mammalian cells could be abolished, while still keeping the trypanocidal activity. In mammalian cells, DON is a powerful inhibitor of de novo purine biosynthesis. In FIG. 6, two experiments are included wherein the block on de novo purine biosynthesis have been by-passed by 10 and 160 μM hypoxanthine, respectively. Hypoxanthine is a naturally occurring purine base in the bloodstream of mammals.

Plasmodium falciparum = test: IC50 against parasite (Swiss Tropical Institute standard method); type: cell-based
Text: (§3) In order to determine in what range DON is effective against Plasmodium falciparum, the cause of malaria, Swiss Tropical Institute (Socinstrasse 57, P.O. Box, CH, 4002 Basel, Switzerland) performed the present experiment according to their standard methods available as a commercial service provided under secrecy (for an exact disclosure of the method, reference is made to Swiss Tropical Institute). Further, the present experiment enables a comparison between the effect of DON on both Trypanosoma brucei rhodiense and Plasmodium falciparum.

[3] = test system: Trypanosoma brucei rhodiense; test: as above; type: cell-based
Text: as §3

[4] = human bloodstream; cited from earlier work
[5] = in vivo; cited from earlier work

With Nc1ccn([C@@H]2O[C@H](CO)[C@@H](O)[C@H]2O)c(=O)n1 [Cytidine, cytidine] the “size of the CTP pool after addition of cytidine or cytosine” value (T. brucei [1]) was “no change”, the “rescue of trypanosomes from the proliferation block asserted by DON” value (T. brucei [2]) was “could not rescue” and the “effect on the DON concentration needed for a proliferation block” value (mouse BALB/c fibroblasts; cytidine added instead of hypoxanthine) was “had no such effect”.

With [N-]=[N+]=CC(=O)CC[C@H](N)C(=O)O [DON, 6-diazo-5-oxo-L-norleucine] the “effect on the CTP pool” value (T. brucei [1]) was “selectively lowered the CTP level; also recorded: lowered the CTP pool”, the “effect on the UTP, ATP or GTP (purine NTP) levels” value (T. brucei [1]; DON-treated T. brucei) was “without affecting the UTP, ATP or GTP levels; also recorded: did not alter the purine NTP pools” and the “effect on trypanosome proliferation” value (T. brucei [2]) was “very active”. For the same compound, the “concentration that completely blocked trypanosome proliferation” value (T. brucei [2]; cultured trypanosomes, 160 μM hypoxanthine in medium) was 1 µM, the “DON concentration needed to inhibit proliferation relative to without hypoxanthine” value (mouse BALB/c fibroblasts; in the presence of 160 μM hypoxanthine) was “around 20 times” and the “antiproliferative effect of DON” value (mouse BALB/c fibroblasts; with 10 μM hypoxanthine (consumed during the experiment)) was “still high”. The “DON concentration needed for a proliferation block” value (mouse BALB/c fibroblasts; with addition of hypoxanthine) was “more than 20 μM”, the “DON concentration for maximal inhibition / total block of proliferation” value (mouse BALB/c fibroblasts; without purines (hypoxanthine) in the culture medium, 72 h) was 1 to 2 µM and the IC50 (Plasmodium falciparum; KI isolate) was 520 nM. The IC50 (Plasmodium falciparum; NF54 isolate) was 360 nM, the IC50 [3] was 430 nM and the half-life [4] was “a few hours”.

With [N-]=[N+]=CC(=O)OC[C@H](N)C(=O)O [Azaserine, azaserine] the “effect on trypanosome proliferation” value (T. brucei [2]) was “had no effect”.

In the case of Nc1cc[nH]c(=O)n1 [cytosine], the “size of the CTP pool after addition of cytidine or cytosine” value (T. brucei [1]) is reported as “no change” and the “rescue of trypanosomes from the proliferation block asserted by DON” value (T. brucei [2]) is reported as “could not rescue”.

In the case of O=c1[nH]cnc2nc[nH]c12 [Hypoxanthine, hypoxanthine], the “crossing of the blood-brain barrier” value [5] is given as “known to cross the blood-brain barrier”.

In the case of N[C@H](C(=O)O)[C@@H]1CC(Cl)=NO1 [acivicin], the “GTP pool reduced by” value (T. brucei [1]; 1 h incubation with acivicin, not shown in the figure) is reported as 50%, the “effect on the CTP pool” value (T. brucei [1]) is reported as “lowered the CTP pool” and the “effect on trypanosome proliferation” value (T. brucei [2]) is reported as “very active”.
